# Results from ChEMBL document CHEMBL3885881, “DrugMatrix”.
# Species on record: Rattus norvegicus
# Assay: DrugMatrix - Regimen: Daily Repeat
# Assay type: toxicity, organism-based, Sprague-Dawley
# Design: regimen Daily Repeat, gender Male, age 6-8 weeks
# Conditions: in vivo, po, route oral GAVAGE, vehicle 100 % WATER; for ABSOLUTE BASOPHIL / ABSOLUTE EOSINOPHIL / ABSOLUTE LYMPHOCYTE / ABSOLUTE MONOCYTE / ABSOLUTE SEGMENTED NEUTROPHIL / BASOPHIL / EOSINOPHIL / ERYTHROCYTE COUNT / HEMATOCRIT / HEMOGLOBIN / LEUKOCYTE COUNT / LYMPHOCYTE / MEAN CORPUSCULAR HEMOGLOBIN / MEAN CORPUSCULAR HEMOGLOBIN CONCENTRATION / MEAN CORPUSCULAR VOLUME / MONOCYTE / NEUTROPHIL / NUCLEATED RED BLOOD CELLS / PLATELET COUNT: tissue Blood; for ALANINE AMINOTRANSFERASE / ALBUMIN / ALKALINE PHOSPHATASE / ASPARTATE AMINOTRANSFERASE / BLOOD UREA NITROGEN / CARBON DIOXIDE / CHLORIDE / CHOLESTEROL / CREATINE PHOSPHOKINASE / CREATININE / GLUCOSE / LACTATE DEHYDROGENASE / LIPASE / PHOSPHORUS / SODIUM / TOTAL BILIRUBIN / TOTAL PROTEIN / URIC ACID: tissue Plasma
# [1] = 0 mg/kg, 72 h, dose level Control, time 3 day
# [2] = 0 mg/kg, 120 h, dose level Control, time 5 day
# [3] = 100 mg/kg, 72 h, dose level Low, time 3 day
compound,measurement,setting,value
CCN(CC)C(=S)SSC(=S)N(CC)CC,ABSOLUTE BASOPHIL,[1],0 CELLS/uL
same,ABSOLUTE EOSINOPHIL,[1],58.83 CELLS/uL
same,ABSOLUTE LYMPHOCYTE,[1],11823.5 CELLS/uL
same,ABSOLUTE MONOCYTE,[1],169 CELLS/uL
same,ABSOLUTE SEGMENTED NEUTROPHIL,[1],815.33 CELLS/uL
same,BASOPHIL,[1],0%
same,EOSINOPHIL,[1],0.5%
same,ERYTHROCYTE COUNT,[1],5.52 x10E6/uL
same,HEMATOCRIT,[1],35.77%
same,HEMOGLOBIN,[1],14.28 G/DL
same,LEUKOCYTE COUNT,[1],12.87 x10E3/uL
same,LYMPHOCYTE,[1],91.67%
same,MEAN CORPUSCULAR HEMOGLOBIN,[1],25.92 pg
same,MEAN CORPUSCULAR HEMOGLOBIN CONCENTRATION,[1],39.95 G/DL
same,MEAN CORPUSCULAR VOLUME,[1],64.85 fL
same,MONOCYTE,[1],1.33%
same,NEUTROPHIL,[1],6.5%
same,NUCLEATED RED BLOOD CELLS,[1],0 /100WBC
same,PLATELET COUNT,[1],1246.17 x10E3/uL
same,ALANINE AMINOTRANSFERASE,[1],66 u/L
same,ALBUMIN,[1],4.25 G/DL
same,ALKALINE PHOSPHATASE,[1],416 u/L
same,ASPARTATE AMINOTRANSFERASE,[1],106.17 u/L
same,BLOOD UREA NITROGEN,[1],12.67 mg/dL
same,CARBON DIOXIDE,[1],31.83 mmol/L
same,CHLORIDE,[1],102.5 MEQ/L
same,CHOLESTEROL,[1],69 mg/dL
same,CREATINE PHOSPHOKINASE,[1],601.83 u/L
same,CREATININE,[1],0.18 mg/dL
same,GLUCOSE,[1],154.5 mg/dL
same,LACTATE DEHYDROGENASE,[1],301.83 u/L
same,LIPASE,[1],11.17 u/L
same,PHOSPHORUS,[1],12.08 mg/dL
same,SODIUM,[1],145.2 MEQ/L
same,TOTAL BILIRUBIN,[1],0.17 mg/dL
same,TOTAL PROTEIN,[1],6.1 G/DL
same,URIC ACID,[1],1.57 mg/dL
same,ABSOLUTE BASOPHIL,[2],0 CELLS/uL
same,ABSOLUTE EOSINOPHIL,[2],19.33 CELLS/uL
same,ABSOLUTE LYMPHOCYTE,[2],12577.83 CELLS/uL
same,ABSOLUTE MONOCYTE,[2],106.33 CELLS/uL
same,ABSOLUTE SEGMENTED NEUTROPHIL,[2],896.5 CELLS/uL
same,BASOPHIL,[2],0%
same,EOSINOPHIL,[2],0.17%
same,ERYTHROCYTE COUNT,[2],5.84 x10E6/uL
same,HEMATOCRIT,[2],36.88%
same,HEMOGLOBIN,[2],14.48 G/DL
same,LEUKOCYTE COUNT,[2],13.6 x10E3/uL
same,LYMPHOCYTE,[2],92.17%
same,MEAN CORPUSCULAR HEMOGLOBIN,[2],24.85 pg
same,MEAN CORPUSCULAR HEMOGLOBIN CONCENTRATION,[2],39.3 G/DL
same,MEAN CORPUSCULAR VOLUME,[2],63.23 fL
same,MONOCYTE,[2],0.83%
same,NEUTROPHIL,[2],6.83%
same,NUCLEATED RED BLOOD CELLS,[2],0 /100WBC
same,PLATELET COUNT,[2],1223.5 x10E3/uL
same,ALANINE AMINOTRANSFERASE,[2],55.33 u/L
same,ALBUMIN,[2],4.08 G/DL
same,ALKALINE PHOSPHATASE,[2],355.5 u/L
same,ASPARTATE AMINOTRANSFERASE,[2],87.67 u/L
same,BLOOD UREA NITROGEN,[2],15.33 mg/dL
same,CARBON DIOXIDE,[2],33.83 mmol/L
same,CHLORIDE,[2],99.67 MEQ/L
same,CHOLESTEROL,[2],72.17 mg/dL
same,CREATINE PHOSPHOKINASE,[2],268.33 u/L
same,CREATININE,[2],0.15 mg/dL
same,GLUCOSE,[2],152.5 mg/dL
same,LACTATE DEHYDROGENASE,[2],212.67 u/L
same,LIPASE,[2],10.83 u/L
same,PHOSPHORUS,[2],11.65 mg/dL
same,SODIUM,[2],142.43 MEQ/L
same,TOTAL BILIRUBIN,[2],0.23 mg/dL
same,TOTAL PROTEIN,[2],6.07 G/DL
same,URIC ACID,[2],1.7 mg/dL
same,ABSOLUTE BASOPHIL,[3],0 CELLS/uL
same,ABSOLUTE EOSINOPHIL,[3],157.33 CELLS/uL
same,ABSOLUTE LYMPHOCYTE,[3],16865.67 CELLS/uL
same,ABSOLUTE MONOCYTE,[3],329 CELLS/uL
same,ABSOLUTE SEGMENTED NEUTROPHIL,[3],2381.33 CELLS/uL
same,BASOPHIL,[3],0%
same,EOSINOPHIL,[3],0.67%
same,ERYTHROCYTE COUNT,[3],5.56 x10E6/uL
same,HEMATOCRIT,[3],35.37%
same,HEMOGLOBIN,[3],14.23 G/DL
same,LEUKOCYTE COUNT,[3],19.73 x10E3/uL
same,LYMPHOCYTE,[3],85.67%
same,MEAN CORPUSCULAR HEMOGLOBIN,[3],25.63 pg
same,MEAN CORPUSCULAR HEMOGLOBIN CONCENTRATION,[3],40.27 G/DL
same,MEAN CORPUSCULAR VOLUME,[3],63.63 fL
same,MONOCYTE,[3],1.67%
same,NEUTROPHIL,[3],12%
same,NUCLEATED RED BLOOD CELLS,[3],0 /100WBC
same,PLATELET COUNT,[3],1201.33 x10E3/uL
same,ALANINE AMINOTRANSFERASE,[3],56 u/L
same,ALBUMIN,[3],3.87 G/DL
same,ALKALINE PHOSPHATASE,[3],264.33 u/L
same,ASPARTATE AMINOTRANSFERASE,[3],73.33 u/L
same,BLOOD UREA NITROGEN,[3],11.67 mg/dL
same,CARBON DIOXIDE,[3],31.67 mmol/L
same,CHLORIDE,[3],102.33 MEQ/L
same,CHOLESTEROL,[3],84.33 mg/dL
same,CREATINE PHOSPHOKINASE,[3],223.33 u/L
same,CREATININE,[3],0.28 mg/dL
same,GLUCOSE,[3],140.67 mg/dL
same,LACTATE DEHYDROGENASE,[3],124 u/L
same,LIPASE,[3],14.33 u/L
same,PHOSPHORUS,[3],11.63 mg/dL
same,SODIUM,[3],144.57 MEQ/L
same,TOTAL BILIRUBIN,[3],0.1 mg/dL
same,TOTAL PROTEIN,[3],5.7 G/DL
same,URIC ACID,[3],1.23 mg/dL
